pEC50: −log10 of the molar value. Converted amounts (≈) assume the structure as drawn.
What was measured:
[1] = Metabolic stability study in human microsome; assay type: in vitro ADME
Summary of the method: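 Human liver microsomes (0.5 mg/mL) with 1 μM compound in 100 mM phosphate pH 7.4 at 37 °C, started with 1 mM NADPH or an NADPH-regenerating system. Samples taken at 0, 3, 6, 9, 15 and 30 min, quenched in methanol. Parent remaining measured by LC-MS/MS; no-cofactor controls included.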

[2] = test system: HBV; assay: Selectivity index (CC50 value/EC50 value); assay type: cell-based, Hepatitis B virus
Text: Based on FDA guidance, in order to support clinical testing in humans, the assessment of acceptable risk-benefit has to be achieved by providing clear evidence of in vitro antiviral activity (EC50) and cytotoxicity (CC50). It is important to establish that an investigational product has antiviral activity at concentrations that can be achieved in vivo without inducing toxic effects to cells. Furthermore, in a cell culture model, apparent antiviral activity of an investigational product can be the result of host cell death after exposure to the product. The relative effectiveness of the compound in inhibiting viral replication compared to inducing cell death is defined as the selectivity index (CC50 value/EC50 value). It is desirable to have a high selectivity index giving maximum antiviral activity with minimal cell toxicity.
The relative effectiveness of the compound in inhibiting viral replication compared to inducing cell death is defined as the selectivity index (CC50 value/EC50 value). It is desirable to have a high selectivity index giving maximum antiviral activity with minimal cell toxicity.

[3] = Lyophilisation solubility assay (Lysa); assay type: physicochemical; details: phosphate buffer, pH 6.5, aqueous buffer, thermodynamic from solid
Summary of the method: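 Duplicate samples from 10 mM DMSO stocks are dried, redissolved in 0.05 M phosphate buffer pH 6.5, stirred 1 h, shaken 2 h and left overnight. Filtrate and its 1/10 dilution are quantified by direct UV or HPLC-UV, giving solubility in μg/mL.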

[4] = test system: HBV; assay: Anti-HBV activity in vitro in HepG2.2.15 cells (extracellular HBV DNA by qPCR); assay type: cell-based, Hepatitis B virus; details: Hepatitis B virus; HepG2.2.15 cells; in-house data; read-out: EC50
Text: (§1) HepG2.2.15 and HepDE19 are stably-transfected cell lines containing the HBV genome. Both cell lines are derived from the hepatoblastoma cell line Hep G2 (American Type Culture Collection, ATCC® HB-8065™) by the published procedures described in references: MA Selles et al. Proc. Natl. Acad. Sci. USA 1987, 84, 1005-1009 and H Guo et al. Journal of Virology 2007, 81, 12472-12484, respectively. Both cell lines were maintained in Dulbecco's modified Eagle's medium (DMEM)-F12 medium supplemented with 10% fetal bovine serum, 100 U/mL penicillin, 100 μg/mL streptomycin, and 0.5 mg/mL of G418.
While HepG2.2.15 cells constitutively support HBV replication and production of virus particles, HepDE19 cells are inducible by tetracycline. Addition of 1 μg/mL tetracycline in culture medium suppresses HBV replication in HepDE19 cells, whereas switching to tetracycline-free medium resumes this process.
HepG2.2.15 cells were seeded into 96-well plates (3×10^4 cells in 100 μl media per well) and incubated overnight at 37° C. The test compounds were serially half-log diluted in DMSO, then diluted 100 times in culture media. 100 μL diluted compounds were added into the plates to reach 0.5% final concentration of DMSO in every well. Five days after compound treatment, culture supernatant was collected for further analysis.
For quantitative PCR detection of extracellular HBV DNA, 100 μL culture supernatant was collected and processed in MagNA Pure 96 Nucleic Acid Purification System (Roche Applied Science) for viral DNA extraction. The extracted samples were subjected to HBV DNA quantification by qPCR.
The compounds of the present invention were tested for their capacity to inhibit a HBV activity and activation as described herein.

[5] = Cytotoxicity (CC50) in HepDE19 cells, CCK-8 cell viability; assay type: cell-based; details: human, HepDE19 cells; read-out: CC50
Text: as §1
Five days after treatment, cell viability was measured by addition of 20 μL of CCK-8 reagent. Two hours after incubation at 37° C., the absorbance at wavelengths of 450 nm and 630 nm (OD450 and OD630) was recorded by a plate reader.

Structure (SMILES)	Human Hepatic Clearance [1]	Selectivity index (CC50/EC50) [2]	solubility thermodynamic [3]	pEC50 [4]	CC50 at 5 days [5]
COC(=O)C1=C(CN2CCOC[C@]2(C)C(=O)O)NC(c2nccs2)=N[C@H]1c1ccc(F)c(F)c1Cl (single isomer, unassigned) [Example 79]	2.18 mL/min/kg	16889	> 660 µg/mL	8.35	76 µM
[2H][C@@]1(c2ccc(F)cc2Cl)N=C(c2nccs2)NC(CN2CC(F)(F)C[C@H]2C(=O)O)=C1C(=O)OC [Example 3, (S)-6-((S)-2-Carboxy-4,4-difluoro-pyrrolidin-1-ylmethyl)-4-(2-chloro-4-fluoro-phenyl)-[4-^2H]-2-thiazol-2-yl-1,4-dihydro-pyrimidine-5-carboxylic acid methyl ester]	9.21 mL/min/kg	88182	> 644 µg/mL	8.96	97 µM
COC(=O)C1=C(CN2CCOC[C@H]2C(=O)O)NC(c2ncc(F)cc2F)=N[C@H]1c1ccc(F)cc1Cl [Example 6, (S)-4-[(R)-6-(2-Chloro-4-fluoro-phenyl)-2-(3,5-difluoro-pyridin-2-yl)-5-methoxycarbonyl-3,6-dihydro-pyrimidin-4-ylmethyl]-morpholine-3-carboxylic acid]	6.28 mL/min/kg	3600	> 100 µg/mL	8.12	27 µM
COC(=O)C1=C(CN2CC(F)(F)C[C@H]2C(=O)O)NC(c2nc(C3CC3)cs2)=N[C@H]1c1ccc(F)cc1Cl [Example 10, (R)-6-((S)-2-Carboxy-4,4-difluoro-pyrrolidin-1-ylmethyl)-4-(2-chloro-4-fluoro-phenyl)-2-(4-cyclopropyl-thiazol-2-yl)-1,4-dihydro-pyrimidine-5-carboxylic acid methyl ester]	8.76 mL/min/kg	5342	246 µg/mL (≈ 443 µM)	8.14	39 µM
COC(=O)C1=C(CN2CC(F)(F)C[C@H]2C(=O)O)NC(c2cc(F)cs2)=N[C@H]1c1ccc(F)cc1Cl [Example 12, (R)-6-((S)-2-Carboxy-4,4-difluoro-pyrrolidin-1-ylmethyl)-4-(2-chloro-4-fluoro-phenyl)-2-(4-fluoro-thiophen-2-yl)-1,4-dihydro-pyrimidine-5-carboxylic acid methyl ester]	5.55 mL/min/kg	>10753	488 µg/mL (≈ 917 µM)	8.03	> 100 µM
[2H]C1([2H])[C@@H](C(=O)O)N(CC2=C(C(=O)OC)[C@H](c3ccc(F)cc3Cl)N=C(c3nccs3)N2)CC1(F)F [Example 19, (R)-6-((S)-2-Carboxy-[3,3-^2H2]-4,4-difluoro-pyrrolidin-1-ylmethyl)-4-(2-chloro-4-fluoro-phenyl)-2-thiazol-2-yl-1,4-dihydro-pyrimidine-5-carboxylic acid methyl ester]	3.65 mL/min/kg	15614	> 654 µg/mL	8.24	89 µM
COC(=O)C1=C(CN2CC(F)(F)C[C@H]2C(=O)O)NC(c2nc(C(F)(F)F)cs2)=N[C@H]1c1ccc(F)cc1Cl [Example 25, (R)-6-((S)-2-Carboxy-4,4-difluoro-pyrrolidin-1-ylmethyl)-4-(2-chloro-4-fluoro-phenyl)-2-(4-trifluoromethyl-thiazol-2-yl)-1,4-dihydro-pyrimidine-5-carboxylic acid methyl ester]	9.34 mL/min/kg	>20000	546 µg/mL (≈ 937 µM)	8.30	> 100 µM
COC(=O)C1=C(CN2CC(F)(F)C[C@H]2C(=O)O)NC(c2nc(C(C)C)cs2)=N[C@H]1c1ccc(F)cc1Cl [Example 28, (R)-6-((S)-2-Carboxy-4,4-difluoro-pyrrolidin-1-ylmethyl)-4-(2-chloro-4-fluoro-phenyl)-2-(4-isopropyl-thiazol-2-yl)-1,4-dihydro-pyrimidine-5-carboxylic acid methyl ester]	–	7045	247 µg/mL (≈ 443 µM)	8.36	31 µM
COC(=O)C1=C(CN2CC(F)(F)C[C@H]2C(=O)O)NC(c2nccn2C)=N[C@H]1c1ccc(F)cc1Cl [Example 32, (R)-6-((S)-2-Carboxy-4,4-difluoro-pyrrolidin-1-ylmethyl)-4-(2-chloro-4-fluoro-phenyl)-2-(1-methyl-1H-imidazol-2-yl)-1,4-dihydro-pyrimidine-5-carboxylic acid methyl ester]	5.04 mL/min/kg	3125	632 µg/mL (≈ 1230 µM)	7.89	40 µM
CCOC(=O)C1=C(CN2CC(F)(F)C[C@H]2C(=O)O)NC(c2nccs2)=N[C@H]1c1ccc(F)cc1Cl [Example 34, (R)-6-((S)-2-Carboxy-4,4-difluoro-pyrrolidin-1-ylmethyl)-4-(2-chloro-4-fluoro-phenyl)-2-thiazol-2-yl-1,4-dihydro-pyrimidine-5-carboxylic acid ethyl ester]	7.46 mL/min/kg	>10000	531 µg/mL (≈ 1000 µM)	8.00	> 100 µM
CCOC(=O)C1=C(CN2CCOC[C@H]2C(=O)O)NC(c2nccn2C)=N[C@H]1c1ccc(F)cc1Cl [Example 35, (S)-4-[(R)-6-(2-Chloro-4-fluoro-phenyl)-5-ethoxycarbonyl-2-(1-methyl-1H-imidazol-2-yl)-3,6-dihydro-pyrimidin-4-ylmethyl]-morpholine-3-carboxylic acid]	8.86 mL/min/kg	12987	> 599 µg/mL	8.11	> 100 µM
COC(=O)C1=C(CN2CCOC[C@H]2C(=O)O)NC(c2nc(SC)cs2)=N[C@H]1c1ccc(F)cc1Cl [Example 61, (3S)-4-[[(4R)-4-(2-Chloro-4-fluorophenyl)-5-methoxycarbonyl-2-(4-methylsulfanyl-1,3-thiazol-2-yl)-1,4-dihydropyrimidin-6-yl]methyl]morpholine-3-carboxylic acid]	–	3133	495 µg/mL (≈ 915 µM)	7.74	56 µM
COC(=O)C1=C(CN2CCO[C@H](C)[C@H]2C(=O)O)NC(c2nccs2)=N[C@H]1c1ccccc1Br [Example 119, (2R,3S)-4-[(R)-6-(2-Bromo-phenyl)-5-methoxycarbonyl-2-thiazol-2-yl-3,6-dihydro-pyrimidin-4-ylmethyl]-2-methyl-morpholine-3-carboxylic acid]	0.85 mL/min/kg	>33333	–	8.52	> 100 µM
CCOC(=O)C1=C(CN2CCOC[C@H]2C(=O)O)NC(c2nccs2)=N[C@H]1c1ccccc1I [Example 129, (3S)-4-[[(4R)-5-Ethoxycarbonyl-4-(2-iodophenyl)-2-(1,3-thiazol-2-yl)-1,4-dihydropyrimidin-6-yl]methyl]morpholine-3 carboxylic acid]	4.25 mL/min/kg	>13158	–	8.12	> 100 µM

Reference: patent US9447086B2, “6-amino acid heteroaryldihydropyrimidines for the treatment and prophylaxis of hepatitis B virus infection” (priority 2012, dated 2016)
